System: GAPLINC
Assay: qPCR of GAPLINC in MDMs pretreated with NF-κB inhibitor, then LPS stimulation
Format: cell-based, human
Settings: MDMs pretreated with 10 uM, LPS 200 ng/ml for 6 h, vs DMSO
Text: FIGS. 14A-14I show monocytes isolated from human PBMCs and differentiated into macrophages were transfected with control or GAPLINC siRNA. […] Data from RNA-seq performed in biological duplicates. FIG. 14C: GAPLINC isoforms in MDMs as determined by Nanopore-based R2C2 sequencing. Data from Nanopore-sequencing performed in biological duplicates. FIG. 14D: Table representing read counts and percent of each GAPLINC isoform. FIG. 14E: Bi-directional vector expressing GFP-Zeocin on one side and GAPLINC on the other side. FIGS. 14F and 14G: qPCR analysis of GAPLINC expression in THP-1 cells expressing ectopic GAPLINC or empty-vector control. Levels of IL6 were quantified following stimulation with LPS (200 ng/ml) for 6 h; data pooled from three independent experiments. *p<0.05. FIG. 14H: qPCR analysis of GAPLINC in MDMs (n=3) pretreated with DMSO or BAY-7082 (10 uM), followed by LPS stimulation (200 ng/ml) for 6 h; data pooled from three independent experiments. *p<0.05. FIG. 14I: ATAC-seq analysis of monocytes and macrophages, untreated and treated with LPS (200 ng/ml) for 1 h, 6 h and 18 h.
Next, we examined GAPLINC levels in primary MDMs in response to inflammation. […] Induction of positive control inflammatory genes TNFα, IL6, and CCL5 was confirmed (FIGS. 16B-16D). […]

Cc1ccc(S(=O)(=O)/C=C/C#N)cc1 [BAY11-7082]
downregulation of GAPLINC upon LPS stimulation: impaired relative to control
